Measurements published in patent publication US5756532A, “Aminomethyl-2 3 8 9-tetrahydro-7H-1 4-dioxino[2 3-E]-indol-8-ones and derivatives” (American Home Products Corporation, priority 1996, dated 1998).

Each compound was assayed on mouse locomotor activity (assay: Reduction of mouse locomotor activity (hypolocomotion)). Conditions: 20 min, sc, horizontal activity counts collected 10 to 20 minutes after dosing.
Format: in vivo, mouse (male, CF-1)
Description: The antipsychotic activity of the compounds of the invention was further established by a determination of the compounds' ability to reduce mouse locomotor activity according to the method of Martin and Bendensky, J. Pharmacol. Exp. Therap. 229: 706-711, 1984, in which mice (male, CF-1, Charles River, 20-30 g) were injected with vehicle or various doses of each drug and locomotor activity was measured for 30 minutes using automated infrared activity monitors (Omnitech-8×8 inch open field) located in a darkened room. ED50 's were calculated from the horizontal activity counts collected from 10 to 20 minutes after dosing using a nonlinear regression analysis with inverse prediction.

Structure (SMILES)	ED50 [mg/kg]
O=C1Cc2c(ccc3c2O[C@@H](CNCCCc2c[nH]c4ccccc24)CO3)N1 [Example 3, 2-{[3-(Indol-3-yl)-propylamino]-methyl}-2,3,8,9-tetrahydro-7H-1,4-dioxino-[2,3-e]indol-8-one]	0.039
Cc1ccc(CNC[C@H]2COc3ccc4c(c3O2)CC(=O)N4)cc1 [Example 7]	0.005
CN(C)c1cccc(OCCCNC[C@H]2COc3ccc4c(c3O2)CC(=O)N4)c1 [Example 11]	0.0138
O=C1Cc2c(ccc3c2O[C@@H](CNCc2cccs2)CO3)N1 [Example 12, 2-{[(Thionphen-2-ylmethyl)-amino]-methyl}-2,3,8,9-tetrahydro-7H-1,4-dioxino[2,3-e]indol-8-one]	0.0005
O=C1Cc2c(ccc3c2O[C@@H](CNCC24CC5CC(CC(C5)C2)C4)CO3)N1 [Example 14]	0.008
O=C1Cc2c(ccc3c2O[C@H](CNCc2ccccc2)CO3)N1 [Example 15, 2-(Benzylamino-methyl)-2,3,8,9-tetrahydro-7H-4-dioxino[2,3-e]indol-8-one]	0.09
COc1ccc(CNC[C@H]2COc3ccc4c(c3O2)CC(=O)N4)cc1 [Example 17, 2-[(4-Methoxy-benzylamino)-methyl]-2,3,8,9-tetrahydro-7H-1,4-dioxino[2,3-e]indol-8-one]	0.027
Cc1ccc(CNC[C@H]2COc3cc(C)c4c(c3O2)CC(=O)N4)cc1 [Example 28, 2-[(4-Methyl-benzylamino)-methyl]-6-methyl-2,3,8,9-tetrahydro-7H-1,4-dioxino[2,3-e]indol-8-one]	0.024

These compounds were tested against T1, dopamine D2 receptor (Rattus norvegicus, UniProt P61169) (assay: Affinity for the dopamine D2 receptor (3H-quinpirole, rat striatal brain tissue homogenate)). Conditions: homogenized rat striatal brain tissue.
T1 construct: homogenized rat striatal brain tissue; from tissue; host or cells: rat striatum (homogenate)
Format: binding
Description: Affinity for the dopamine D2 receptor was established by a modification of the standard experimental test procedure of Seemen and Schaus, European Journal of Pharmacology 203: 105-109, 1991, wherein homogenized rat striatal brain tissue is incubated with ^3 H-quinpirole and various concentrations of test compound, filtered and washed and counted in a Betaplate scintillation counter.

T1 sequence (P61169 whole entry): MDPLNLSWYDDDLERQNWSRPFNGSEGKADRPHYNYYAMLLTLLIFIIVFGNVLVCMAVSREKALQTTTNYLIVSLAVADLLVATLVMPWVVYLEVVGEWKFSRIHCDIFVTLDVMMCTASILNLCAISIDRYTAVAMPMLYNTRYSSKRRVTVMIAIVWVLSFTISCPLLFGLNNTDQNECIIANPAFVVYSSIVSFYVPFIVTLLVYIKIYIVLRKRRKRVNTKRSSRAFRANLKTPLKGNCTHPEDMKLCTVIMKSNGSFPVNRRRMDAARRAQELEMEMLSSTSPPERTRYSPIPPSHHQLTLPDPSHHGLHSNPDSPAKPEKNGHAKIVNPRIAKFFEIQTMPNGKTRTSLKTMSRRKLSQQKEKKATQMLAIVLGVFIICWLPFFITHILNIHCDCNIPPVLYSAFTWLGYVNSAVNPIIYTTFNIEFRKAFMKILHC

Structure (SMILES)	IC50 [nM]
O=C1Nc2ccc3c(c2C1=Cc1ccccc1)O[C@@H](CNCc1ccccc1)CO3 [Example 2, 2-(Benzylamino-methyl)-1-benzylidene-2,3,8,9-tetrahydro-7H-1,4-dioxino[2,3-e]indol-8-one]	2.8
O=C1Cc2c(ccc3c2O[C@@H](CNCCCc2c[nH]c4ccccc24)CO3)N1 [Example 3, 2-{[3-(Indol-3-yl)-propylamino]-methyl}-2,3,8,9-tetrahydro-7H-1,4-dioxino-[2,3-e]indol-8-one]	0.14
O=C1Cc2c(ccc3c2O[C@@H](CNCCc2c[nH]c4ccccc24)CO3)N1 [Example 4]	1.79
O=C1Cc2c(ccc3c2O[C@@H](CNCCCO)CO3)N1 [Example 5, 2-[(3-Hydroxy-propylamino)-methyl]-2,3,8,9-tetrahydro-7H-1,4-dioxino[2,3-e]indol-8-one]	1.42
O=C1CCc2c(ccc3c2O[C@@H](CNCc2ccccc2)CO3)N1 [Example 6, 2-(Benzylamino-methyl)-2,3,9,10-tetrahydro-7H-1,4-dioxino[2,3-f]quinolin-8-one]	12.3
Cc1ccc(CNC[C@H]2COc3ccc4c(c3O2)CC(=O)N4)cc1 [Example 7]	0.34
NC[C@H]1COc2ccc3c(c2O1)CC(=O)N3 [Example 8, 2-Aminomethyl-2,3,8,9-tetrahydro-7H-1,4-dioxino[2,3-e]indol-8-one]	9.93
O=C1Cc2c(ccc3c2O[C@@H](CNCC2CCCCC2)CO3)N1 [Example 9, 2-(Cyclohexylmethylamino-methyl)-2,3,8,9-tetrahydro-7H-1,4-dioxino[2,3-e]indol-8-one]	0.37
O=C1Cc2c(ccc3c2O[C@@H](CNCCc2cccnc2)CO3)N1 [Example 10, 2-[(2-Pyridin-3yl-ethylamino)-methyl]-2,3,8,9-tetrahydro-7H-1,4-dioxino-[2,3-e]indol-8one]	3.06
CN(C)c1cccc(OCCCNC[C@H]2COc3ccc4c(c3O2)CC(=O)N4)c1 [Example 11]	1.3
O=C1Cc2c(ccc3c2O[C@@H](CNCc2cccs2)CO3)N1 [Example 12, 2-{[(Thionphen-2-ylmethyl)-amino]-methyl}-2,3,8,9-tetrahydro-7H-1,4-dioxino[2,3-e]indol-8-one]	0.51
O=C1Cc2c(ccc3c2O[C@@H](CNCCCOc2ccc4cccnc4c2)CO3)N1 [Example 13]	1.39
O=C1Cc2c(ccc3c2O[C@@H](CNCC24CC5CC(CC(C5)C2)C4)CO3)N1 [Example 14]	0.43
O=C1Cc2c(ccc3c2O[C@H](CNCc2ccccc2)CO3)N1 [Example 15, 2-(Benzylamino-methyl)-2,3,8,9-tetrahydro-7H-4-dioxino[2,3-e]indol-8-one]	3.33
CCCCCNC[C@H]1COc2ccc3c(c2O1)CC(=O)N3 [Example 16, 2-(Pentylaminomethyl)-2,3,8,9-tetrahydro-7H-1,4-dioxino[2,3-e]indol-8-one]	0.45
COc1ccc(CNC[C@H]2COc3ccc4c(c3O2)CC(=O)N4)cc1 [Example 17, 2-[(4-Methoxy-benzylamino)-methyl]-2,3,8,9-tetrahydro-7H-1,4-dioxino[2,3-e]indol-8-one]	0.68
O=C1Cc2c(ccc3c2O[C@@H](CNCc2cccc4ccccc24)CO3)N1 [Example 18, 2-(Napthalen-1-yl-methylamino-methyl)-2,3,8,9-tetrahydro-7H-1,4-dioxono[2,3-e]indol-8-one]	0.49
O=C1Cc2c(ccc3c2O[C@@H](CNCc2ccc(C(F)(F)F)cc2)CO3)N1 [Example 19, 2-(4-Trifluoromethyl-benzylamino-methyl)-2,3,8,9-tetrahydro-7H-1,4-dioxino [2,3-e]indol-8-one]	0.34
O=C1Cc2c(ccc3c2O[C@@H](CNCc2ccc(F)cc2)CO3)N1 [Example 20, 2-(4-Fluoro-benzylamino)-methyl-2,3,8,9-tetrahydro-7H-1,4-dioxino[2,3-e]-indol-8-one]	0.29
O=C1Cc2c(ccc3c2O[C@@H](CNCCCCc2ccccc2)CO3)N1 [Example 21, 2-(4-Phenyl-butylamino)-methyl-2,3,8,9-tetrahydro-7H-1,4-dioxino[2,3-e]indol-8-one]	0.33
O=C1Nc2ccc3c(c2C1=Cc1ccc(F)cc1)O[C@@H](CNCc1ccc(F)cc1)CO3 [Example 22]	17.7
CC(=O)Nc1cccc(OCCCNC[C@H]2COc3ccc4c(c3O2)CC(=O)N4)c1 [Example 23, N-(3-{3-[(8-Oxo-2,3,8,9-tetrahydro-7H-1,4-dioxinor[2,3-e]indol-2-ylmethyl)-amino]-propoxy}-phenyl)-acetamide]	0.89
O=C1Cc2c(ccc3c2O[C@@H](CNCc2cccc(C(F)(F)F)c2)CO3)N1 [Example 25, 2-[(3-Trifluoromethyl-benzylamino)-methyl]-2,3,8,9-tetrahydro-7H-1,4-dioxino [2,3-e]indol-8-one]	1.04
O=C1Nc2ccc3c(c2C1=O)O[C@@H](CNCc1ccccc1)CO3 [Example 26]	0.52
Cc1ccc(CNC[C@H]2COc3cc(C)c4c(c3O2)CC(=O)N4)cc1 [Example 28, 2-[(4-Methyl-benzylamino)-methyl]-6-methyl-2,3,8,9-tetrahydro-7H-1,4-dioxino[2,3-e]indol-8-one]	1.39

Further lines, results first:

IC50 [nM]	Structure (SMILES)
3.3	Cc1cc2c(c3c1NC(=O)C3)O[C@@H](CNCc1cccs1)CO2 [Example 29, 2-{[(Thiophene-2-ylmethyl)-amino]-methyl}-6-methyl-2,3,8,9-tetrahydro-7H-1,4-dioxino[2,3-e]indol-8-one]
1.3	Cc1cc2c(c3c1NC(=O)C3)O[C@@H](CNCc1ccccc1)CO2 [Example 31, 2-(Benzylamino-methyl)-6-methyl-2,3,8,9-tetrahydro-7H-1,4-dioxino[2,3-e]indol-8-one]
2.15	Cc1cc2c(c3c1NC(=O)C3)O[C@@H](CNCc1ccc(F)cc1)CO2 [Example 32]
0.57	O=C1Cc2c(c(F)cc3c2O[C@@H](CNCc2ccccc2)CO3)N1 [Example 33, 2-(Benzylamino-methyl)-6-fluoro-2,3,8,9-tetrahydro-7H-1,4-dioxino[2,3-e]indol-8-one]
0.56	O=C1Cc2c(c(F)cc3c2O[C@@H](CNCc2ccc(F)cc2)CO3)N1 [Example 34, 6-Fluoro-2-[(4-fluoro-benzylamino)-methyl]-2,3,8,9-tetrahydro-7H-1,4-dioxino[2,3-e]indol-8-one]
52.1	Cc1ccc(C=C2C(=O)Nc3c(F)cc4c(c32)O[C@@H](CNCc2ccc(C)cc2)CO4)cc1 [Example 35, 6-Fluoro-2-[(4-methyl-benzylamino)-methyl]-9-(4-methyl-benzylidene)-2,3.8.9-tetrahydro-7H-1,4-dioxino[2,3-e]indol-8-one]
0.35	Cc1ccc(CNC[C@H]2COc3cc(F)c4c(c3O2)CC(=O)N4)cc1 [Example 36, 6-Fluoro-2-[(4-methyl-benzylamino)-methyl]-2,3,8,9-tetrahydro-7H-1,4-dioxino[2,3-e]indol-8-one]
0.51	CN(C)c1cccc(OCCCNC[C@H]2COc3cc(F)c4c(c3O2)CC(=O)N4)c1 [Example 37, 2-{[3-(3-Dimethylamino-phenoxy)-propylamino]-methyl}-6-fluoro-2,3,8,9-tetrahydro-7H-1,4-dioxino[2,3-e]indol-8-one]
1.08	O=C1Cc2c(c(F)cc3c2O[C@@H](CNCC24CC5CC(CC(C5)C2)C4)CO3)N1 [Example 38, 2-{[(Adamantan-1-ylmethyl)-amino]-methyl}-6-fluoro-2,3,8,9-tetrahydro-7H-1,4-dioxino[2,3-e]indol-8-one]
0.53	O=C1Cc2c(c(F)cc3c2O[C@@H](CNCc2ccc(Cl)cc2)CO3)N1 [Example 40, 2-[(4-Chloro-benzylamino)-methyl]-6-fluoro-2,3,8,9-tetrahydro-7H-1,4-dioxino[2,3-e]indol-8-one]
0.56	O=C1Cc2c(c(F)cc3c2O[C@@H](CNCc2ccc(C(F)(F)F)cc2)CO3)N1 [Example 41, 6-Fluoro-2-[(4-trifluoromethyl-benzylamino)-methyl]-2,3,8,9-tetrahydro-7H-dioxino[2,3-e]indol-8-one]
0.67	O=C1Cc2c(c(F)cc3c2O[C@@H](CNCCCCc2ccccc2)CO3)N1 [Example 42, 6-Fluoro-2-[(4-phenyl-butylamino)-methyl]-2,3,8,9-tetrahydro-7H-1,4-dioxino[2,3-e]indol-8-one]
0.98	O=C1Cc2c(c(Cl)cc3c2O[C@@H](CNCc2ccc(Cl)cc2)CO3)N1 [Example 43, 6-Chloro-2-[(4-chloro-benzylamino)-methyl]-2,3,8,9-tetrahydro-7H-1,4-dioxino[2,3-e]indol-8-one]
1.43	Cc1ccc(CNC[C@H]2COc3cc(Cl)c4c(c3O2)CC(=O)N4)cc1 [Example 44, 6-Chloro-2-[(4-methyl-benzylamino)-methyl]-2,3,8,9-tetrahydro-7H-1,4-dioxino[2,3-e]indol-8-one]
0.97	O=C1Cc2c(c(Cl)cc3c2O[C@@H](CNCc2ccccc2)CO3)N1 [Example 45, 2-(Benzylamino)-methyl-6-chloro-2,3,8,9-tetrahydro-7H-1,4-dioxino[2,3-e]indol-8-one]
1	O=C1Cc2c(c(Cl)cc3c2O[C@@H](CNCc2ccc(F)cc2)CO3)N1 [Example 46, 6-Chloro-2-[(4-fluoro-benzylaimino)-methyl]-2,3,8,9-tetrahydro-7H-1,4-dioxino[2,3-e_]indol-8-one]
